Laboratory results as given in US7049313B2, “ATM inhibitors” (Kudos Pharmaceuticals Ltd., priority 2002, dated 2006).

The compounds below were run against T1, ATM (Homo sapiens, UniProt Q13315) (assay: In vitro ATM inhibition assay (phosphorylation of GSTp53N66 on serine 15)).
T1 construct: ATM protein was immunoprecipitated from HeLa cell nuclear extract; endogenous in cells; host or cells: HeLa cell nuclear extract (immunoprecipitate)
Type: biochemical
Experimental: In vitro ATM inhibition Assays
In order to assess the inhibitory action of the compounds against ATM in vitro, the following assay was used to determine IC50 values.
ATM protein was immunoprecipitated from HeLa cell nuclear extract using rabbit polyclonal anti-sera raised to the C-terminal ˜500 amino-acid residues of the human ATM protein. The immunoprecipitation was performed according to the methodology described by Banin, S. et al. (1998). 10 μl of immunoprecipitated ATM in Buffer C (50 mM Hepes, pH 7.4, 6 mM MgCl2, 150 mM NaCl, 0.1 mM sodium orthovanadate, 4 mM MnCl2, 0.1 mM dithiothreitol, 10% glycerol) was added to 32.5 μl of buffer C containing 1 μg of the ATM substrate GSTp53N66 in a V-bottomed 96 well polypropylene plate. The GSTp53N66 substrate is the amino terminal 66 amino acid residues of human wild type p53 fused to glutathione S-transferase. ATM phosphorylates p53 on the residue serine 15 (Banin, S. et al. (1998)). Varying concentrations of inhibitor were then added. […] After 10 minutes of incubation at 37° C., the reactions were initiated by the addition of 5 μl of 500 μM Na-ATP. After 1 hour with shaking at 37° C., 150 μl of phosphate buffered saline (PBS) was added to the reaction and the plate centrifuged at 1500 rpm for 10 minutes. 5 μl of the reaction was then transferred to a 96 well opaque white plate containing 45 μl of PBS to allow the GSTp53N66 substrate to bind to the plate wells. The plate was covered and incubated at room temperature for 1 hour with shaking before discarding the contents. The plate wells were washed twice by the addition of PBS prior to the addition of 3% (w/v) bovine serum albumin (BSA) in PBS. The plate was incubated at room temperature for 1 hour with shaking before discarding the contents and washing twice with PBS. To the wells, 50 μl of a 1:10,000 dilution of primary phosphoserine-15 antibody (Cell Signaling Technology, #9284L) in 3% BSA/PBS was added to detect the phosphorylation event on the serine 15 residue of p53 elicited by the ATM kinase. After 1 hour of incubation at room temperature with shaking, the wells were washed four times with PBS prior to the addition of an anti-rabbit HRP conjugated secondary antibody (Pierce, 31462) with shaking for 1 hour at room temperature. The wells were then washed four times with PBS before the addition of chemiluminescence reagent (NEN Renaissance, NEL105). The plate was then shaken briefly, covered with a transparent plate seal and transferred to a TopCount NXT for chemiluminescent counting. Counts per second, following a one second counting time, were recorded for each reaction.
The enzyme activity for each compound is then calculated using the following equation: […]

T1 sequence (Q13315 whole entry): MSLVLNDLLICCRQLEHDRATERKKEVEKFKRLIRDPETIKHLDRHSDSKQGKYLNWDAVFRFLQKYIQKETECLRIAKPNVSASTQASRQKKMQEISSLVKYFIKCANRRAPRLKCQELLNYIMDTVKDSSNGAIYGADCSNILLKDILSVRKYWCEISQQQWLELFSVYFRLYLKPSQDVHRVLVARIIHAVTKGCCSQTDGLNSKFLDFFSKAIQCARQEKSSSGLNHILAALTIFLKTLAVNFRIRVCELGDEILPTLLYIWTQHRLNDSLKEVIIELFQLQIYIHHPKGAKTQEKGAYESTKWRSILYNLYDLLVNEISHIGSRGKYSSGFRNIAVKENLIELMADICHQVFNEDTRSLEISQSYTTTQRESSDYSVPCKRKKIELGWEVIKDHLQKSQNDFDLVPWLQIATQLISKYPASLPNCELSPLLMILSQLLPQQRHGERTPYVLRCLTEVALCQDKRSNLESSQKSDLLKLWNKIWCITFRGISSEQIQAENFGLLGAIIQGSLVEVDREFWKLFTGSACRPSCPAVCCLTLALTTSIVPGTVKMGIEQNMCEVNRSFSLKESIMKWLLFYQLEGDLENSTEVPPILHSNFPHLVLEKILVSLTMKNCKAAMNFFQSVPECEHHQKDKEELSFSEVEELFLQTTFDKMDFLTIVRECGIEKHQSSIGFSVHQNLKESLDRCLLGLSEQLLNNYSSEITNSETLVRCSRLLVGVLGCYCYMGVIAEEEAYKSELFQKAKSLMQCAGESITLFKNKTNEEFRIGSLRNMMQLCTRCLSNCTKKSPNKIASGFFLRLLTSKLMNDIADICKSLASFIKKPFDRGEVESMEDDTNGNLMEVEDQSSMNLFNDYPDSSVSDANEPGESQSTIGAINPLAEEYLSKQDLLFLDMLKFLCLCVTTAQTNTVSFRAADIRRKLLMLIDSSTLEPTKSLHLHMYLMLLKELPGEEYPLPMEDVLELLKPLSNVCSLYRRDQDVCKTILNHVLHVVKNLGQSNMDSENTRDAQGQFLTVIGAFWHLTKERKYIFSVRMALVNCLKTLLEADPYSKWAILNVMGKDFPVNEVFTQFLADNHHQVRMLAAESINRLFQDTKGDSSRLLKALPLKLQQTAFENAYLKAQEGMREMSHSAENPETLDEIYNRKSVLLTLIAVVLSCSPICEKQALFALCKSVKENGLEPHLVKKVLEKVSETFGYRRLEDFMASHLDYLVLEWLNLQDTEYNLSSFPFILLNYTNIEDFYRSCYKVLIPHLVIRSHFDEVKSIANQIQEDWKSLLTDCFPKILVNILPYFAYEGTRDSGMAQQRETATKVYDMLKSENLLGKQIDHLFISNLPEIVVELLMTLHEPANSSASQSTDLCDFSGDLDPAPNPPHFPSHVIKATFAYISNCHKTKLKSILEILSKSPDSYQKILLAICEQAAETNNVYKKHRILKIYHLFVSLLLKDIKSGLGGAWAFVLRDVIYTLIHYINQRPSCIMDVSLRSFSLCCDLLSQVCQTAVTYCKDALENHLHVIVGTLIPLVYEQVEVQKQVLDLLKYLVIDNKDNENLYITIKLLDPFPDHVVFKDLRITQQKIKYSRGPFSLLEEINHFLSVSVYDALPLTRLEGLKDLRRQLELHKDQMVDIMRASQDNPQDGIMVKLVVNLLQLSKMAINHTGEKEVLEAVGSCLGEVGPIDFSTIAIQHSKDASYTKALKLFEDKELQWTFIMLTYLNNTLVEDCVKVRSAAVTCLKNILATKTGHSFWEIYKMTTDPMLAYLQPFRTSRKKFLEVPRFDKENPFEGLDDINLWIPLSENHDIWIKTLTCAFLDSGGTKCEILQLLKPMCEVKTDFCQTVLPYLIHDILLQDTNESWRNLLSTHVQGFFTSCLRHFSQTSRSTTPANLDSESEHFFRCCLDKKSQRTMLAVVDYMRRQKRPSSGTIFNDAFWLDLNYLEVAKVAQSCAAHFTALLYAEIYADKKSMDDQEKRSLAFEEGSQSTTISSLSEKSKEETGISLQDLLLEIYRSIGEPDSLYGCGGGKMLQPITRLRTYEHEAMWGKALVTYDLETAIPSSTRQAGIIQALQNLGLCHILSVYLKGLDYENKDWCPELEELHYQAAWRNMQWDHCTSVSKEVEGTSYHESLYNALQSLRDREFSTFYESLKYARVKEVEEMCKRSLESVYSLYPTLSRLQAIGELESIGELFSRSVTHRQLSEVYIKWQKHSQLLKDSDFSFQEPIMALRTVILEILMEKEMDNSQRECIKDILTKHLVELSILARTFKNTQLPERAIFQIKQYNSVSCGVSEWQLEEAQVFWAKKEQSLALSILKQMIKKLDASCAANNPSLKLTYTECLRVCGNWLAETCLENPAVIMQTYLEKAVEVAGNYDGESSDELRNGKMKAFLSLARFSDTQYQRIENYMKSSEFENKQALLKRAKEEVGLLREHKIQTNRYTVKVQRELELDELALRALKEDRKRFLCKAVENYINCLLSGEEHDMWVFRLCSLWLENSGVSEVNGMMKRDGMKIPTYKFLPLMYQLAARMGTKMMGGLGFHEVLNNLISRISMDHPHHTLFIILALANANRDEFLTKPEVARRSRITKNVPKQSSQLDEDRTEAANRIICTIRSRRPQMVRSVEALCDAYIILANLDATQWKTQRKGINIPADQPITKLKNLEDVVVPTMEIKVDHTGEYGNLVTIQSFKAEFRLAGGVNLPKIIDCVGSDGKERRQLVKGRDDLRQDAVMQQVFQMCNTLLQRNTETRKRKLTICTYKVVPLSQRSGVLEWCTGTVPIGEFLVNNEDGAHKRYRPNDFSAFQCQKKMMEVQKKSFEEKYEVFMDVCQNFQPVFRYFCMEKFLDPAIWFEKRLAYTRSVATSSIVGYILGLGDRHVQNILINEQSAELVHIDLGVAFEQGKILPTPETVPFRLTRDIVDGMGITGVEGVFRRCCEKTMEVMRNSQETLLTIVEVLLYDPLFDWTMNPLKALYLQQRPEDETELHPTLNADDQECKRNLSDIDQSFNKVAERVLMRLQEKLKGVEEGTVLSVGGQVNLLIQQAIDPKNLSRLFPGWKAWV

Structure (SMILES)	IC50 [nM]
NCCNCCC(=O)Nc1ccc2c(c1)Cc1cccc(-c3cc(=O)cc(N4CCOCC4)o3)c1S2 [Compound 75]	< 200
CC(=O)OC(C(=O)Nc1ccc2c(c1)Cc1cccc(-c3cc(=O)cc(N4CCOCC4)o3)c1S2)c1ccccc1 (centres unmarked) [Compound 41]	< 200
O=C(Nc1ccc(-c2cc(=O)cc(N3CCOCC3)o2)c2c1Cc1ccccc1S2)c1ccc[nH]1 [Compound 128]	< 200
CN(C)C(=O)c1ccc2c(c1)Sc1cccc(-c3cc(=O)cc(N4CCOCC4)o3)c1S2 [Compound 140]	< 200
O=C(CCNCCCN1CCOCC1)Nc1ccc2c(c1)Cc1cccc(-c3cc(=O)cc(N4CCOCC4)o3)c1S2 [Compound 80]	< 200
CN1CCCN(CC(=O)Nc2ccc3c(c2)Cc2cccc(-c4cc(=O)cc(N5CCOCC5)o4)c2S3)CC1 [Compound 59]	< 200
Cc1ccoc1C(=O)Nc1ccc(-c2cc(=O)cc(N3CCOCC3)o2)c2c1Cc1ccccc1S2 [Compound 129]	< 200
O=C(Nc1ccc2c(c1)Cc1cccc(-c3cc(=O)cc(N4CCOCC4)o3)c1S2)C1CCC1 [Compound 32]	< 200
COCCN(CCOC)CCC(=O)Nc1ccc2c(c1)Cc1cccc(-c3cc(=O)cc(N4CCOCC4)o3)c1S2 [Compound 73]	< 200
Cc1nnsc1C(=O)Nc1ccc(-c2cc(=O)cc(N3CCOCC3)o2)c2c1Cc1ccccc1S2 [Compound 111]	< 200
O=C(Nc1ccc2c(c1)Cc1cccc(-c3cc(=O)cc(N4CCOCC4)o3)c1S2)c1ccco1 [Compound 27]	< 200
COc1ccc(CNCC(=O)Nc2ccc3c(c2)Cc2cccc(-c4cc(=O)cc(N5CCOCC5)o4)c2S3)cc1 [Compound 63]	< 200
O=C(O)C(F)(F)C(F)(F)C(=O)Nc1ccc2c(c1)Cc1cccc(-c3cc(=O)cc(N4CCOCC4)o3)c1S2 [Compound 50]	< 200
CNC(=O)c1ccc2c(c1)Sc1cccc(-c3cc(=O)cc(N4CCOCC4)o3)c1S2 [Compound 139]	< 200
CC(C)(C)OC(=O)N1c2ccccc2Sc2c(-c3cc(=O)cc(N4CCOCC4)o3)cccc21 [Compound 134, 4-(6-Morpholin-4-yl-4-oxo-4H-pyran-2-yl)-phenothiazine-10-carboxylic acid tert-butyl ester]	< 200
CC(C)(C)OC(=O)Nc1ccc(-c2cc(=O)cc(N3CCOCC3)o2)c2c1Cc1ccccc1S2 [Compound 127]	< 200
O=c1cc(-c2ccc(NS(=O)(=O)Cc3ccccc3)c3c2Sc2ccccc2C3)oc(N2CCOCC2)c1 [Compound 130]	< 200
COC(=O)c1ccc2c(c1)Sc1cccc(-c3cc(=O)cc(N4CCOCC4)o3)c1S2 [Compound 137, 6-(6-Morpholin-4-yl-4-oxo-4H-pyran-2-yl)-thianthrene-2-carboxylic acid methyl ester]	< 200

Structure (SMILES)	IC50 [nM]
Nc1ccc(-c2cc(=O)cc(N3CCOCC3)o2)c2c1Cc1ccccc1S2 [Compound 106, 2-(1-Amino-9H-thioxanthen-4-yl)-6-morpholin-4-yl-pyran-4-one]	< 200
Cc1noc(C)c1C(=O)Nc1ccc2c(c1)Cc1cccc(-c3cc(=O)cc(N4CCOCC4)o3)c1S2 [Compound 33]	< 200
O=c1cc(-c2ccc(OCCSc3ncn[nH]3)c3c2Cc2ccccc2S3)oc(N2CCOCC2)c1 [Compound 102]	< 200
O=c1cc(-c2ccc(O)c3c2Cc2ccccc2S3)oc(N2CCOCC2)c1 [Compound 87, 2-(4-Hydroxy-9H-thioxanthen-1yl)-6-morpholin-4-yl-pyran-4-one]	< 200
O=C(Nc1ccc2c(c1)Cc1cccc(-c3cc(=O)cc(N4CCOCC4)o3)c1S2)c1csc(-c2cccs2)n1 [Compound 46]	< 200
O=C(CN1CCNCC1)Nc1ccc2c(c1)Cc1cccc(-c3cc(=O)cc(N4CCOCC4)o3)c1S2 [Compound 52]	< 200
CN1CCN(CCC(=O)Nc2ccc3c(c2)Cc2cccc(-c4cc(=O)cc(N5CCOCC5)o4)c2S3)CC1 [Compound 71]	< 200
O=C(Nc1ccc2c(c1)Cc1cccc(-c3cc(=O)cc(N4CCOCC4)o3)c1S2)c1ccncc1 [Compound 28]	< 200
CC(=O)Oc1ccccc1C(=O)Nc1ccc(-c2cc(=O)cc(N3CCOCC3)o2)c2c1Cc1ccccc1S2 [Compound 109]	< 200
O=c1cc(-c2cccc3c2Sc2ccccc2N3)oc(N2CCOCC2)c1 [Compound 135, 2-Morpholin-4-yl-6-(10H-phenothiazin-4-yl)-pyran-4-one]	< 200
CN1CCCN(CCC(=O)Nc2ccc3c(c2)Cc2cccc(-c4cc(=O)cc(N5CCOCC5)o4)c2S3)CC1 [Compound 77]	< 200
O=C(CCN1CCCCCC1)Nc1ccc2c(c1)Cc1cccc(-c3cc(=O)cc(N4CCOCC4)o3)c1S2 [Compound 79]	< 200
COCCN(CCOC)CC(=O)Nc1ccc2c(c1)Cc1cccc(-c3cc(=O)cc(N4CCOCC4)o3)c1S2 [Compound 55]	< 200
O=c1cc(-c2ccc(OCCNCCO)c3c2Cc2ccccc2S3)oc(N2CCOCC2)c1 [Compound 93]	< 200
O=C(Nc1ccc2c(c1)Cc1cccc(-c3cc(=O)cc(N4CCOCC4)o3)c1S2)c1ccc2c(c1)CCO2 [Compound 43]	< 200
O=C(Nc1ccc(-c2cc(=O)cc(N3CCOCC3)o2)c2c1Cc1ccccc1S2)c1ccc(-c2ccccn2)s1 [Compound 110]	< 200
COCC(=O)Nc1ccc2c(c1)Cc1cccc(-c3cc(=O)cc(N4CCOCC4)o3)c1S2 [Compound 22]	< 200
COCC(=O)CC(=O)Nc1ccc(-c2cc(=O)cc(N3CCOCC3)o2)c2c1Cc1ccccc1S2 [Compound 124]	< 200

The next lines start with the values.

IC50 [nM]	Structure (SMILES)
< 200	O=C(NN1CCOCC1)c1ccc2c(c1)Sc1cccc(-c3cc(=O)cc(N4CCOCC4)o3)c1S2 [Compound 165]
< 200	O=C(NCCc1ccccn1)c1ccc2c(c1)Sc1cccc(-c3cc(=O)cc(N4CCOCC4)o3)c1S2 [Compound 173]
< 200	CCNC(=O)c1ccc2c(c1)Sc1cccc(-c3cc(=O)cc(N4CCOCC4)o3)c1S2 [Compound 142]
< 200	CN(CCc1ccccn1)C(=O)c1ccc2c(c1)Sc1cccc(-c3cc(=O)cc(N4CCOCC4)o3)c1S2 [Compound 174]
< 200	O=C(NCc1ccccn1)c1ccc2c(c1)Sc1cccc(-c3cc(=O)cc(N4CCOCC4)o3)c1S2 [Compound 170]
< 200	CC(C)NC(=O)c1ccc2c(c1)Sc1cccc(-c3cc(=O)cc(N4CCOCC4)o3)c1S2 [Compound 146]
< 200	O=C(NCC1CCCCC1)c1ccc2c(c1)Sc1cccc(-c3cc(=O)cc(N4CCOCC4)o3)c1S2 [Compound 154]
< 200	CCN(CC)CCCNC(=O)c1ccc2c(c1)Sc1cccc(-c3cc(=O)cc(N4CCOCC4)o3)c1S2 [Compound 182]
< 200	CCN(CC)CCNC(=O)c1ccc2c(c1)Sc1cccc(-c3cc(=O)cc(N4CCOCC4)o3)c1S2 [Compound 181]
< 200	CC(C)CNC(=O)c1ccc2c(c1)Sc1cccc(-c3cc(=O)cc(N4CCOCC4)o3)c1S2 [Compound 145]
< 200	CN1CCN(NC(=O)c2ccc3c(c2)Sc2cccc(-c4cc(=O)cc(N5CCOCC5)o4)c2S3)CC1 [Compound 164]
< 200	O=C(c1ccc2c(c1)Sc1cccc(-c3cc(=O)cc(N4CCOCC4)o3)c1S2)N1CCCCC1 [Compound 157]
< 200	O=C(c1ccc2c(c1)Sc1cccc(-c3cc(=O)cc(N4CCOCC4)o3)c1S2)N1CCCC1 [Compound 156]
< 200	COC[C@@H]1CCCN1NC(=O)c1ccc2c(c1)Sc1cccc(-c3cc(=O)cc(N4CCOCC4)o3)c1S2 [Compound 163]
< 200	CN(C)c1ccc(CNC(=O)c2ccc3c(c2)Sc2cccc(-c4cc(=O)cc(N5CCOCC5)o4)c2S3)cc1 [Compound 169]
< 200	O=C(NCCN1CCCC1)c1ccc2c(c1)Sc1cccc(-c3cc(=O)cc(N4CCOCC4)o3)c1S2 [Compound 167]
< 200	O=C(NC1CCCC1)c1ccc2c(c1)Sc1cccc(-c3cc(=O)cc(N4CCOCC4)o3)c1S2 [Compound 155]
< 200	O=C(NCc1ccco1)c1ccc2c(c1)Sc1cccc(-c3cc(=O)cc(N4CCOCC4)o3)c1S2 [Compound 150]
< 200	O=C(c1ccc2c(c1)Sc1cccc(-c3cc(=O)cc(N4CCOCC4)o3)c1S2)N1CCCCCC1 [Compound 161]
< 200	CN1CCCC1CCNC(=O)c1ccc2c(c1)Sc1cccc(-c3cc(=O)cc(N4CCOCC4)o3)c1S2 (centres unmarked) [Compound 168]
